Laboratory results taken from US6895396B2, “Neural network methods to predict enzyme inhibitor or receptor ligand potency” (Albert Einstein College of Medicine of Yeshiva University, priority 1998, dated 2005).
One block for each compound: values may come before it.

Assays:
adenosine deaminase = molecular target: T1, adenosine deaminase (Homo sapiens, UniProt P00813); assay: Adenosine deaminase binding free energy, experimental; conditions: for ΔG/RT (experimental): binding free energy, dimensionless
T1 sequence (P00813 1-363): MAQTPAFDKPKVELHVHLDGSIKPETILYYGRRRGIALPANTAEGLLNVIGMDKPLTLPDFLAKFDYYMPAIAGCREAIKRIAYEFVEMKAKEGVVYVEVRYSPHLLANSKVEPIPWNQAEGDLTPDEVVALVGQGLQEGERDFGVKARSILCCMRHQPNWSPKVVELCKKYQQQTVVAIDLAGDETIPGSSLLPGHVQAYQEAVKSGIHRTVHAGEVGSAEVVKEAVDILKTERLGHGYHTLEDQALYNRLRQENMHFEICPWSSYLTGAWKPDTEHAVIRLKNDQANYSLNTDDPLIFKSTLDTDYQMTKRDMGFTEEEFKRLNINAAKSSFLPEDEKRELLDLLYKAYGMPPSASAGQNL

cytidine deaminase = cytidine deaminase (Escherichia coli, UniProt P0ABF6); conditions: binding free energy from the literature; cited from earlier work
cytidine deaminase, sequence (P0ABF6 whole entry): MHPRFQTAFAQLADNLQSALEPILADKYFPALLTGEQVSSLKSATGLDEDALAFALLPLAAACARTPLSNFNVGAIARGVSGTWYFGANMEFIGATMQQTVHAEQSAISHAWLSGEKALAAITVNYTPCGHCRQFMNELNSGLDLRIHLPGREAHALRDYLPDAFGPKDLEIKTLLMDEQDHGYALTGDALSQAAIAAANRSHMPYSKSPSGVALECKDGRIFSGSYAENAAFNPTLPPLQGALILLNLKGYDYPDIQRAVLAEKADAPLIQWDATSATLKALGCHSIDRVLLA

AMP nucleosidase = conditions: binding free energy, dimensionless

ΔG/RT (experimental) (adenosine deaminase): −10
Compound: Nc1ncnc2c1ncn2[C@@H]1O[C@H](CO)[C@@H](O)[C@H]1O [adenosine]

Compound: Nc1ccn([C@@H]2O[C@H](CO)[C@@H](O)[C@H]2O)c(=O)n1 [cytidine]
ΔG/RT (experimental) (cytidine deaminase): −9.9

Compound: O=C1NC(O)C(Cl)=CN1[C@@H]1O[C@H](CO)[C@@H](O)[C@H]1O (some centres unmarked) [hydrated 5-chloro-pyrimidine-2-one ribonucleoside]
ΔG/RT (experimental) (cytidine deaminase): −19

Compound: NC1=NC(=O)N([C@@H]2O[C@H](CO)[C@@H](O)[C@H]2O)CC1 [5,6-dihydrocytidine]
ΔG/RT (experimental) (cytidine deaminase): −9.1

Compound: Nc1ncnc2c([C@@H]3O[C@H](CO)[C@@H](O)[C@H]3O)[nH]nc12 [formycin]
ΔG/RT (experimental) (AMP nucleosidase): −17

inhibitor quality in words (adenosine deaminase): not a good inhibitor
ΔG/RT (experimental) (adenosine deaminase): −12
Compound: OC[C@H]1O[C@@H](n2cnc3c2N=CNC3)[C@H](O)[C@@H]1O [1,6-dihydropurine ribonucleoside]

Compound: Nc1ncnc2c1ccn2[C@@H]1O[C@H](CO)[C@@H](O)[C@H]1O [tubercidin]
ΔG/RT (experimental) (AMP nucleosidase): −9.9

Compound: Nc1ncnc2c1ncn2[C@@H]1O[C@H](COP(=O)(O)O)[C@@H](O)[C@H]1O [AMP]
ΔG/RT (experimental) (AMP nucleosidase): −9.0

Compound: O=C1NC(O)C(F)=CN1[C@@H]1O[C@H](CO)[C@@H](O)[C@H]1O (some centres unmarked) [hydrated 5-fluoro-pyrimidine-2-one ribonucleoside]
ΔG/RT (experimental) (cytidine deaminase): −24

Compound: aminopyrazolo pyrimidine ribonucleotide
ΔG/RT (experimental) (AMP nucleosidase): −12

ΔG/RT (experimental) (adenosine deaminase): −25
Compound: (R)-coformycin

ΔG/RT (experimental) (adenosine deaminase): −29
Compound: OC[C@H]1O[C@@H](n2cnc3c2NC=N[C@@H]3O)[C@H](O)[C@@H]1O [hydrated purine ribonucleoside]

Compound: O=c1ccn([C@@H]2O[C@H](CO)[C@@H](O)[C@H]2O)c(=O)[nH]1 [uridine]
ΔG/RT (experimental) (cytidine deaminase): −6.0

Compound: O=C1NCC=CN1[C@@H]1O[C@H](CO)[C@@H](O)[C@H]1O [3,4-dihydrozebularine]
ΔG/RT (experimental) (cytidine deaminase): −10

Compound: hydrated pyrimidine-2-one ribonucleoside
ΔG/RT (experimental) (cytidine deaminase): −27

Compound: hydrated 5-bromo-pyrimidine-2-one ribonucleoside
ΔG/RT (experimental) (cytidine deaminase): −18
